Where “and” joins values, the source holds several entries; their conditions need not be identical. Equal values may be shown once. ± gives the uncertainty stated by the source.
SMILES	viscosity (298.15 K, 101 kPa)	viscosity (303.15 K, 101 kPa)	viscosity (308.15 K, 101 kPa)	viscosity (313.15 K, 101 kPa)	viscosity (323.15 K, 101 kPa)	viscosity (293.15 K, 101 kPa)	further results
CC1OC(C)OC(C)O1 (centres undefined)	–	–	–	–	–	–	viscosity (293.15 K, 101.3 kPa): 1.224 ± 0.023 mPa·s
CCC(O)CO (centres undefined)	52.8 ± 0.27 mPa·s	38.71 ± 0.25 mPa·s	29.48 ± 0.19 mPa·s	22.86 ± 0.15 mPa·s	12.85 ± 0.77 mPa·s	–	viscosity (298.15 K, 100 kPa): 51.63 ± 1.1 mPa·s; viscosity (303.15 K, 100 kPa): 37.66 ± 0.78 mPa·s; viscosity (308.15 K, 100 kPa): 28.44 ± 0.59 mPa·s; viscosity (313.15 K, 100 kPa): 21.59 ± 0.45 mPa·s; viscosity (318.15 K, 100 kPa): 16.74 ± 0.35 mPa·s; viscosity (323.15 K, 100 kPa): 13.22 ± 0.27 mPa·s
CCCBr	–	0.486 ± 0.011 mPa·s	0.436 ± 0.0038 mPa·s	0.448 ± 0.01 mPa·s	0.415 ± 0.009 mPa·s	0.531 ± 0.011 mPa·s	–
CCCC	–	–	–	0.143 ± 0.003 mPa·s	–	0.17 ± 0.01 mPa·s	viscosity (293.15 K, 101.33 kPa): 0.17 ± 0.0034 mPa·s; viscosity (313.15 K, 101.33 kPa): 0.143 ± 0.0029 mPa·s
CCCC(=O)OC	0.546 ± 0.015 mPa·s	–	–	–	0.374 ± 0.01 mPa·s	–	–
CCCCCCCC(=O)[O-].c1c[nH+]c[nH]1	–	–	–	–	–	–	viscosity (293.15 K, 101.3 kPa): 88.48 ± 4.6 mPa·s; viscosity (298.15 K, 101.3 kPa): 71.27 ± 2.4 mPa·s; viscosity (303.15 K, 101.3 kPa): 56.48 ± 0.89 mPa·s; viscosity (308.15 K, 101.3 kPa): 45.3 ± 1.1 mPa·s; viscosity (313.15 K, 101.3 kPa): 36.92 ± 0.87 mPa·s; viscosity (318.15 K, 101.3 kPa): 30.56 ± 0.72 mPa·s; viscosity (323.15 K, 101.3 kPa): 25.33 ± 0.61 mPa·s
CCCCCCCCNCCCCCCCC	–	3.665 ± 0.073 mPa·s	–	–	–	–	–
CCCCOC(=O)c1ccccc1	2.691 ± 0.085 mPa·s	–	2.208 ± 0.069 mPa·s	–	–	–	viscosity (293.15 K, 101.33 kPa): 2.835 ± 0.016 mPa·s; viscosity (303.15 K, 101.33 kPa): 2.189 ± 0.013 mPa·s; viscosity (313.15 K, 101.33 kPa): 1.73 ± 0.01 mPa·s; viscosity (318.15 K, 101 kPa): 1.819 ± 0.057 mPa·s; viscosity (323.15 K, 101.33 kPa): 1.388 ± 0.009 mPa·s
CCOC(=O)CCCBr	–	1.826 ± 0.011 mPa·s	–	–	–	–	–
CN(CCO)CCO	74.81 ± 4.5 mPa·s	–	–	37.9 ± 2 mPa·s and 34.04 ± 0.41 mPa·s	24.7 ± 1.3 mPa·s and 21.53 ± 0.27 mPa·s	101.2 ± 6.2 mPa·s	viscosity (298.15 K, 101.33 kPa): 77.19 ± 2.4 mPa·s and 77.19 ± 0.84 mPa·s
COCCOCCOCCO	6.287 ± 0.13 mPa·s and 6.254 ± 0.11 mPa·s	5.412 ± 0.099 mPa·s	4.535 ± 0.097 mPa·s	–	–	7.211 ± 0.13 mPa·s	viscosity (308.15 K, 101.33 kPa): 4.642 ± 0.11 mPa·s and 5.055 ± 0.13 mPa·s; viscosity (313.15 K, 101.33 kPa): 4.074 ± 0.31 mPa·s and 4.08 ± 0.068 mPa·s; viscosity (318.15 K, 101 kPa): 3.726 ± 0.079 mPa·s; viscosity (323.15 K, 101.33 kPa): 3.202 ± 0.31 mPa·s and 3.2 ± 0.053 mPa·s
COCCOCCOCCOC	1.979 ± 0.06 mPa·s	–	1.607 ± 0.05 mPa·s	–	–	–	viscosity (298.15 K, 101.33 kPa): 1.95 ± 0.015 mPa·s
COP(=O)([O-])OC.Cn1cc[n+](C)c1	290.8 ± 18 mPa·s	210.1 ± 10 mPa·s	155.6 ± 6.4 mPa·s	119.2 ± 4.2 mPa·s	74.24 ± 1.9 mPa·s	415.9 ± 30 mPa·s	viscosity (308.15 K, 101.33 kPa): 139.5 ± 2.6 mPa·s; viscosity (318.15 K, 101 kPa): 92.77 ± 2.7 mPa·s
ClCc1ccccc1	1.377 ± 0.033 mPa·s	1.112 ± 0.01 mPa·s	–	–	–	–	–
NCCN	1.37 ± 0.03 mPa·s and 1.39 ± 0.03 mPa·s and 1.26 ± 0.034 mPa·s	1.16 ± 0.03 mPa·s and 1.18 ± 0.03 mPa·s and 1.299 ± 0.01 mPa·s (2×)	–	–	0.737 ± 0.02 mPa·s and 0.9042 ± 0.0074 mPa·s and 0.904 ± 0.007 mPa·s	1.52 ± 0.03 mPa·s and 1.62 ± 0.12 mPa·s and 1.54 ± 0.03 mPa·s	viscosity (303.15 K, 101.3 kPa): 1.29 ± 0.13 mPa·s; viscosity (303.15 K, 101.33 kPa): 1.299 ± 0.01 mPa·s; viscosity (308.15 K, 101.3 kPa): 1.167 ± 0.12 mPa·s; viscosity (308.15 K, 101.33 kPa): 1.191 ± 0.01 mPa·s; viscosity (313.15 K, 100 kPa): 0.7611 ± 0.0066 mPa·s; viscosity (313.15 K, 101.3 kPa): 1.06 ± 0.11 mPa·s; viscosity (313.15 K, 101.33 kPa): 1.08 ± 0.009 mPa·s; viscosity (318.15 K, 101.3 kPa): 0.967 ± 0.097 mPa·s; viscosity (318.15 K, 101.33 kPa): 0.986 ± 0.008 mPa·s; viscosity (323.15 K, 101.33 kPa): 0.904 ± 0.007 mPa·s

From the CheMixHub viscosity set
